Source: US4353910A, “Derivatives of 4,5,6,7-tetrahydroisoxazolo [5,4-c] pyridine-3-one, pharmaceutical compositions and methods of treatment” (priority 1981, dated 1982)

What was measured:
[1] = system: isoniazide-induced seizures in mice; assay: Isoniazide antagonism (isoniazide 300 mg/kg s.c. induced convulsions); type: in vivo, mouse; set-up: unit: mg/kg; conditions: i.p. test compound, table does not say whether MED or ED50
Method: Isoniazide 300 mg/kg s.c.
Five mice are used for each dose level.
Immediately after administration of test substance, isoniazide 300 mg/kg is injected s.c. This dose of isoniazide induces intermittent tonic clonic seizures within 60 minutes.
The calculations are performed as an "on line procedure" on the EDP-terminal. […] ED50 is determined as the dose in mg/kg which increases the time 50%.

mouse pain threshold = assay: Mouse grid shock (analgesic effect, pain threshold); type: in vivo; conditions: male mice, + not defined
Method: The mouse grid consists of a perspex cage with wire grid bottom and a perspex lid, on which is placed a microphone sensitive to the frequency of a mouse-squeak. A stimulator with motordriven potentiometer applies a sequence of square wave impulses of continuously increasing milliamperage to the grid. Frequency of impulses 20 cycles/sec., duration 5 msec. Milliamperage is recorded on a digital amperemeter connected to the stimulator. Activation of the microphone by a mouse-squeak cuts off the current and the final milliamperage appear on the meter.
Five mice are used for each dose level. Each mouse serves as its own control.
Prior to the administration of test substance the animals are placed on the grid one at a time and the pain threshold is determined by increasing the current intensity until the mouse squeaks. The pain threshold may be read on the milliamperemeter.
Fifteen minutes and 30 minutes after administration of test substance the mice are tested again and the pain thresholds recorded.
Analgesic effect is present when the pain threshold is increased over the pre-dosing value (control value). The results are stated as % increase in pain threshold calculated on the basis of the control value. The registration can also be done as an on-line procedure. […]

[2] = biological target: ^3 H-GABA binding to rat brain membranes; assay: ^3 H-GABA binding to rat brain membranes; conditions: 10 nM ^3 H-GABA, on ice 5 min
Method: 0.32 M sucrose (made fresh every day)
0.05 N Tris-citrate buffer (pH ~6.8)
^3 H-GABA=aminobutyric acid, γ-2,3-^3 H(N) approx.
35 Ci/mmol, from New England Nuclear
(diluted daily to 1 μM in water)
A. Preparation of membranes
Rats are killed by a blow to their head, exsanguinated and their brains removed and cooled in icecold saline. After rinsing and weighing two brains are pooled and homogenized in 40 ml of icecold 0.32 M sucrose using a motor-driven homogenizer with teflon pestle (6 strokes up and down, slow speed rotation).
The samples are centrifuged for 10 min. at 900 g, and thereafter the supernatants are centrifuged for 20 min. at 17,000 g (4° C.). […]
Incubation tubes in duplicate receive on ice 780 μl of water, 200 μl of drug dissolved in water, 20 μl of 1 μM ^3 H-GABA (final concentration of ^3 H-GABA in tubes=10 nM) and 1000 μl of the membrane suspension. […] Ten ml of Instagel or Lumagel containing 10 ml of acetic acid per 1 are added, and the radioactivity are determined by liquid scintillation counting. The unspecific binding of ^3 H-GABA is determined by incubating the samples with 1 mM of GABA. […]
The means of controls and 1 mM GABA samples are calculated. […] The IC50-values are determined as the concentrations, at which the binding is 50 percent of the total binding minus the unspecific binding.

[3] = THIP, European Patent Application No. 78 100 191.2; cited from earlier work
[4] = THIP, prior art; cited from earlier work

SMILES: CC(=O)n1oc2c(c1=O)CCNC2 [Example 3, 2-Acetyl-4,5,6,7-tetrahydroisoxazolo[5,4-c]-pyridine-3-one]
- Isoniazide antagonism [1]: weak effect
- Mouse grid shock (mouse pain threshold): no effect
- IC50 [2]: > 100 µM

SMILES: NC(=O)n1oc2c(c1=O)CCNC2 [Example 5, 2-Carbamoyl-4,5,6,7-tetrahydroisoxazolo[5,4-c]-pyridine-3-one]
- Isoniazide antagonism [1]: 5.8

SMILES: CNC(=O)n1oc2c(c1=O)CCNC2 [Example 6, 2-(N-methylcarbamoyl)-4,5,6,7-tetrahydroisoxazolo[5,4-c]pyridine-3-one]
- Isoniazide antagonism [1]: 1.3

SMILES: O=C(NC1CCCCC1)n1oc2c(c1=O)CCNC2 [Example 7, 2-(N-cyclohexylcarbamoyl)-4,5,6,7-tetrahydroisoxazolo[5,4-c]pyridine-3-one]
- Isoniazide antagonism [1]: 2.1

SMILES: Oc1noc2c1CCNC2 [THIP, 4,5,6,7-tetrahydroisoxazolo[5,4-c]pyridine-3-ol]
- Isoniazide antagonism [1]: 1.3
- GABA-related activity [3]: having GABA-related activity
- duration of action [4]: relatively shortacting
- side effects [4]: some side effects
